What was measured:
Format in all cases: in vivo
[1] = system: Proteasome subunit alpha type 2 (Multicatalytic endopeptidase complex subunit C3); experiment: 2-DE proteome analysis of rat hippocampus: Proteasome subunit alpha type 2; conditions: rat hippocampus cytosolic extract, 10 mg/kg i.p. daily 14 days, vs control
Description: (§1) Animal dosing. Adult male Sprague Dawley rats weighing 230-320 g were housed with ad libitum access to food and water. After 1 week of habituation, rats were administered either an antidepressant or vehicle alone. The following drugs were administered intraperitoneally (i.p.): fluoxetine (10 mg/kg daily), venlafaxine (10 mg/kg daily) or vehicle alone (1 ml/kg normal saline daily) for 14 days (n=3 rats per group).
Sample preparation and cytosolic protein extraction. The animals were euthanized and hippocampi were rapidly dissected from the whole brain. Samples from each treatment group were pooled and stored at −85° C. Cytosolic extracts were prepared using the universal extraction kit from Sigma (prot-two) as follows: soluble cytoplasmic extraction reagent (S2688) was added to the hippocampal tissue (10 ml/250 mg wet weight). Samples were sonicated (4 times at 30 seconds) and centrifuged for 45 minutes (14,000 g) at 4° C. The supernatant was decanted and stored on ice. Ten milliliters of the soluble cytoplasmic extraction reagent was added to the remaining pellet and the sonication and centrifugation steps were repeated. The supernatant was decanted, combined with the previous supernatant and SpeedVac (Savant Instruments, Halbrook, N.Y.) dried. Each sample was dissolved in 2 ml of 2-D lysis buffer (6 M urea, 2 M thiourea, 4% CHAPS, 40 mM Tris, 65 mM dithiothreitol (DTT), 1 mM sodium vanadate, 1 mM sodium fluoride, protease inhibitor tablet (#1836145, Roche)), concentrated and desalted (Centricon tube; 6500 rpm) at 10° C. for 12 hours.
Two-dimensional gel electrophoresis. First dimensional isoelectric focusing (IEF) was performed on 18 cm IPG strips (pH 4-7) using an IPGphor unit (Amersham Pharmacia). Each strip was rehydrated for 16 hours with sample lysate (˜500 ug) in a final volume of 400 uL of IEF solution (10 uL of bromophenol blue (0.25% w/v); 2 uL of Ampholyte (pH 4-7, Amersham #17-6000-86); 2-D lysis buffer). […] The strips were then subjected to a two-step equilibration (50 mM Tris; 2% SDS; 30% glycerol) in (A) 0.5% DTT (Bio-Rad) and (B) 4.5% iodoacetamide (Sigma) buffers before proceeding to SDS-PAGE. […] Molecular masses were determined by running standard protein markers (Genomic Solutions Inc.), covering the range 10-200 kDa as well as internal verification via landmark proteins within the gel. […]
(§2) Protein fixation, silver staining and 2-D gel comparisons. […] Protein spots were outlined (first automatically and then manually) and quantified using the HT analyzer v2.2 software (Genomic Solutions Inc.). The software calculated the relative spot volume of the proteins compared with the total amount of protein in the gel. […]

[2] = system: Adenine Phosphoribosyltransferase (APRT); experiment: 2-DE proteome analysis of rat hippocampus: APRT; conditions: rat hippocampus cytosolic extract, 10 mg/kg i.p. daily 14 days, vs control; gel spot 57
Description: as §1
(§3) Sample preparation and cytosolic protein extraction. The animals were euthanized and hippocampi were rapidly dissected from the whole brain. Samples from each treatment group were pooled and stored at −85° C. Cytosolic extracts were prepared using the universal extraction kit from Sigma (prot-two) as follows: soluble cytoplasmic extraction reagent (S2688) was added to the hippocampal tissue (10 ml/250 mg wet weight). […]
(§4) Two-dimensional gel electrophoresis. […] Molecular masses were determined by running standard protein markers (Genomic Solutions Inc.), covering the range 10-200 kDa as well as internal verification via landmark proteins within the gel. […]
as §2

[3] = system: 61 S Ribosomal protein L28; experiment: 2-DE proteome analysis of rat hippocampus: Ribosomal protein L28; conditions: rat hippocampus cytosolic extract, 10 mg/kg i.p. daily 14 days, vs control; gel spot 66
Description: as §1, §3, §4, §2

[4] = system: 10 KD heat shock protein, mitochondrial (Hsp10); experiment: 2-DE proteome analysis of rat hippocampus: Hsp10; conditions: rat hippocampus cytosolic extract, 10 mg/kg i.p. daily 14 days, vs control; gel spot 83
Description: as §1, §3, §4, §2

Row | Compound | Fold change, Proteasome subunit alpha type 2 ([1]; gel spot 27) [Fold change] | Fold change, Proteasome subunit alpha type 2 ([1]; gel spot 27, listed as fluoxetine) [Fold change] | Fold change, Adenine Phosphoribosyltransferase (APRT) [2] [Fold change] | Fold change, 61 S Ribosomal protein L28 [3] [Fold change] | Fold change, 10 KD heat shock protein, mitochondrial (Hsp10) [4] [Fold change] | Fold change, Proteasome subunit alpha type 2 ([1]; gel spot 27, listed as venlafaxine) [Fold change]
1 | CNCCC(Oc1ccc(C(F)(F)F)cc1)c1ccccc1 (stereo not shown) [Fluoxetine, fluoxetine] | 6.1 | 6 | 5.8 | 0.7 | 2.3 | –
2 | COc1ccc(C(CN(C)C)C2(O)CCCCC2)cc1 (stereo not shown) [Venlafaxine, venlafaxine] | 10.6 | – | 3 | 0.6 | 3.8 | 10
